# Test results taken from patent publication US20230332103A1, “Methods and Compositions for Generating Human Forebrain Neural Progenitor Cells and for Maturation Thereof to Parvalbumin+ Interneurons” (Trailhead Biosystems Inc., priority 2021, published 2023).
# Tests used:
# [1] = test system: human pluripotent stem cells; test: additional HD-DoE experiment for stage 1 (forebrain differentiation from pluripotency), optimized for FEZF2; format: cell-based; conditions: for impact on expression of FEZF2: dynamic profile, FIG. 6; for factor contribution on expression of FEZF2: positive impact, additional stage 1 experiment optimized for FEZF2, FIG. 5
# Experimental: To identify the recipe for stage 1 of differentiation, 96 different combinations of effectors generated using Design-of-Experiments compression through D-optimality were robotically prepared. The effector combinations were prepared in a basal media and were subsequently added to the cells, which were then allowed to differentiate. Three days later RNA extraction was performed, and gene expression was obtained using quantitative PCR analysis. The data were normalized and modeled using partial least squares regression analysis to the effector design, resulting in the generation of gene-specific models, which after model tuning for maximal Q2 predictive power, provided explanation of the effectors ability to control the expression of individual genes, combinatorially, and individually. Solutions within the tested space could then be explored to address desirability.
# To further enhance the conditions for forebrain differentiation from pluripotency, an additional HD-DoE experiment was performed. Additional gene regulatory models were obtained that were used for preparation of the differentiation protocol. The factors in this experiment included LDN193189, PD173074, BLU9931, Purmorphamine, SC79, MK2206, ZM336372, PD0325901, CHIR99021, XAV939, UCLA-GP130, Tofacitinib and GO6983. […] Dynamic profile analysis was also used to assess the interaction between the effectors.
# [2] = test system: forebrain-committed neural stem cells (stage 1 neural stem cells); test: HD-DoE 12-factor experiment for stage 2 recipe, optimized for NKX2-1; format: cell-based, human; conditions: model maximized for NKX2-1 / dynamic profile, FIG. 7 and 8
# Outline: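 Forebrain-committed neural stem cells treated for 3 days after stage 1 with combinations of 12 factors (LDN193189, BMP7, PD0325901, MK2206, A8301, XAV939, CHIR99021, purmorphamine, SANT-1, AGN193109, TTNPB, GSI-XX). Response scored as maximal NKX2-1 and minimal PAX6 expression.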
# [3] = test system: human pluripotent stem cells; test: factor criticality analysis (dynamic profile analysis) of stage 1 recipe; format: cell-based; set-up: unit not given here; conditions: other five factors present; for expression level of FEZF2 when the effector is removed: 2000 with all six factors; for expression level of SIX3 when the effector is removed: 3000 with all six factors; for expression level of OTX2 when the effector is removed: 5500 with all six factors
# Experimental: (§1) To assess the impact of the elimination of each validated factor, dynamic profile analysis was used and compared the expression level of genes of interest in absence of each finalized factor while others are present.
# In the stage 1 recipe, each of the six finalized factors were removed individually while the other five factors were present and expression levels of forebrain genes was assessed compared to the presence of all six factors together. The results are summarized in FIG. 11A-B. When LDN193189 was removed, expression levels of FEZF2, OTX2 and SIX3 were decreased drastically from 2000 to 1000, 5500 to 4000 and 3000 to 0, respectively. […] When Purmorphamine was removed, levels of FEZF2 and SIX3 were decreased to 1000 and below 3000, while levels of OTX2 increased to 6500.
# [4] = test system: forebrain-committed neural stem cells (stage 1 neural stem cells); test: factor criticality analysis (dynamic profile analysis) of stage 2 recipe; format: cell-based, human
# Experimental: as §1
# In the stage 2 recipe, each of the four finalized factors were removed while the other three factors remained present and expression levels of NKX2-1, PAX6 and NKX2-2 were assessed compared to presence of all four factors. The results are summarized in FIG. 13A-B. Absence of PD0325901 reduced the levels of NKX2-1 and NKX2-2 while increasing PAX6 from 5000 to 3200, 100 to 0 and 0 to 5000, respectively. […] Removing XAV939 reduced the levels of NKX2-1 from 5000 to 3000, while increasing both PAX6 and NKX2-2 to 10000 and 200, respectively. Another observation was the interaction between XAV939 and Purmorphamine. In the absence of XAV939, the impact of Purmorphamine on NKX2-1 became negative and, as it is shown in interaction plot of FIG. 14, the level of NKX2-1 is higher when both factors are present.
Compound,impact on expression of FEZF2 [1],factor contribution on expression of FEZF2 [1],impact on expression of NKX2-1 [2],expression level of FEZF2 when the effector is removed [3],expression level of SIX3 when the effector is removed [3],expression level of OTX2 when the effector is removed [3],"expression level of PAX6 in the absence of the effector ([4]; stage 2 recipe, other three factors present, 0 with all four factors)","expression level of NKX2-2 in the absence of the effector ([4]; stage 2 recipe, other three factors present, 100 with all four factors)","expression level of NKX2-1 in the absence of the effector ([4]; stage 2 recipe, other three factors present, 5000 with all four factors)","impact on NKX2-1 in the absence of XAV939 ([4]; interaction between XAV939 and Purmorphamine, FIG. 14)"
c1ccc2c(-c3cnn4cc(-c5ccc(N6CCNCC6)cc5)cnc34)ccnc2c1 [LDN193189],positive impact,18,increase its expression level,1000,0,4000,below 0,below 0,did not significantly change,
c1ccc2c(Oc3nc(Nc4ccc(N5CCOCC5)cc4)c4ncn(C5CCCCC5)c4n3)cccc2c1 [Purmorphamine],positive impact,11,increase its expression level,1000,below 3000,6500,,,,negative
